From ChEMBL document CHEMBL3885861, “Open TG-GATES”

Species: Rattus norvegicus
Test: Open TG-GATES - Regimen: Single
Assay type: toxicity, organism-based, Sprague-Dawley
Design: regimen Single, gender Male, age 6 weeks
Settings: in vivo, po, route gavage; for gamma-GTP / ALP / ALT / AST / BUN / CRE / Ca / Cl / DBIL / GLC / IP / K / LDH / Na / PL / RALB / TBIL / TG / TP: tissue Plasma; for APTT / Bas / Eos / Fbg / Hb / Ht / Lym / MCH / MCV / Mono / Neu / PT / Plat / RBC / Ret / WBC: tissue Blood; for KIDNEY_L / KIDNEY_R / KIDNEY_TOTAL: tissue Kidney; for LIVER: tissue Liver
[1] = 100 mg/kg, 3 h, dose level Middle
[2] = 100 mg/kg, 6 h, dose level Middle
[3] = 100 mg/kg, 9 h, dose level Middle
[4] = 100 mg/kg, 24 h, dose level Middle
[5] = 300 mg/kg, 3 h, dose level High
[6] = 300 mg/kg, 6 h, dose level High
[7] = 300 mg/kg, 9 h, dose level High
[8] = 300 mg/kg, 24 h, dose level High

## NC(=O)N1c2ccccc2C=Cc2ccccc21 [CARBAMAZEPINE]
30 mg/kg, 24 h, dose level Low
  gamma-GTP: 0.8 IU/L
[1]
  TERMINAL_BW: 216.3 g
  APTT: 19.3 s
  Bas: 0%
  Eos: 1.2%
  Fbg: 209.4 mg/dL
  Hb: 13.2 g/dL
  Ht: 38.8%
  Lym: 77.4%
  MCH: 21.3 pg
  MCV: 62.7 fL
  Mono: 2.8%
  Neu: 17.2%
  PT: 12.4 s
  Plat: 121.8 x10_4/uL
  RBC: 619 x10_4/ul
  Ret: 7.2%
  WBC: 96 x10_2/uL
  KIDNEY_L: 0.9 g
  KIDNEY_R: 0.9 g
  KIDNEY_TOTAL: 1.9 g
  LIVER: 9.8 g
  ALP: 792.4 IU/L
  ALT: 35.8 IU/L
  AST: 63.8 IU/L
  BUN: 9.2 mg/dL
  CRE: 0.4 mg/dL
  Ca: 10.4 mg/dL
  Cl: 102 meq/L
  DBIL: 0.076 mg/dL
  GLC: 190 mg/dL
  IP: 9.9 mg/dL
  K: 3.8 meq/L
  LDH: 202 IU/L
  Na: 140.6 meq/L
  PL: 152.4 mg/dL
  RALB: 3.3 g/dL
  TBIL: 0.1 mg/dL
  TG: 62 mg/dL
  TP: 5.5 g/dL
  gamma-GTP: 1 IU/L
[2]
  TERMINAL_BW: 210.4 g
  APTT: 20.3 s
  Bas: 0%
  Eos: 1%
  Fbg: 210 mg/dL
  Hb: 13.2 g/dL
  Ht: 38.7%
  Lym: 80.4%
  MCH: 20.8 pg
  MCV: 61.1 fL
  Mono: 2.6%
  Neu: 14.8%
  PT: 12.8 s
  Plat: 121.9 x10_4/uL
  RBC: 633.2 x10_4/ul
  Ret: 6.5%
  WBC: 95.7 x10_2/uL
  KIDNEY_L: 0.9 g
  KIDNEY_R: 0.9 g
  KIDNEY_TOTAL: 1.8 g
  LIVER: 9.1 g
  ALP: 803.4 IU/L
  ALT: 30.8 IU/L
  AST: 60.4 IU/L
  BUN: 9.4 mg/dL
  CRE: 0.4 mg/dL
  Ca: 10.6 mg/dL
  Cl: 102.4 meq/L
  DBIL: 0.084 mg/dL
  GLC: 190.6 mg/dL
  IP: 9.4 mg/dL
  K: 3.8 meq/L
  LDH: 175.2 IU/L
  Na: 140.8 meq/L
  PL: 142 mg/dL
  RALB: 3.4 g/dL
  TBIL: 0.1 mg/dL
  TG: 58.4 mg/dL
  TP: 5.6 g/dL
  gamma-GTP: 0.6 IU/L
[3]
  TERMINAL_BW: 211 g
  APTT: 18.6 s
  Bas: 0%
  Eos: 1%
  Fbg: 204.6 mg/dL
  Hb: 13.3 g/dL
  Ht: 38.7%
  Lym: 81.4%
  MCH: 21.3 pg
  MCV: 61.9 fL
  Mono: 2.4%
  Neu: 14.8%
  PT: 13.2 s
  Plat: 120.7 x10_4/uL
  RBC: 625.2 x10_4/ul
  Ret: 6.4%
  WBC: 91.7 x10_2/uL
  KIDNEY_L: 1 g
  KIDNEY_R: 1 g
  KIDNEY_TOTAL: 2 g
  LIVER: 8.6 g
  ALP: 828.4 IU/L
  ALT: 25.2 IU/L
  AST: 57.6 IU/L
  BUN: 9.6 mg/dL
  CRE: 0.3 mg/dL
  Ca: 10.3 mg/dL
  Cl: 101.6 meq/L
  DBIL: 0.064 mg/dL
  GLC: 197 mg/dL
  IP: 10.1 mg/dL
  K: 3.7 meq/L
  LDH: 176.2 IU/L
  Na: 140.2 meq/L
  PL: 133.2 mg/dL
  RALB: 3.4 g/dL
  TBIL: 0.1 mg/dL
  TG: 45.6 mg/dL
  TP: 5.4 g/dL
  gamma-GTP: 0.8 IU/L
[4]
  TERMINAL_BW: 226.1 g
  APTT: 20.2 s
  Bas: 0%
  Eos: 0.8%
  Fbg: 211.6 mg/dL
  Hb: 13.3 g/dL
  Ht: 39.4%
  Lym: 80%
  MCH: 21.1 pg
  MCV: 62.7 fL
  Mono: 2.8%
  Neu: 15.6%
  PT: 12.2 s
  Plat: 123.8 x10_4/uL
  RBC: 629 x10_4/ul
  Ret: 5.9%
  WBC: 88.7 x10_2/uL
  KIDNEY_L: 1 g
  KIDNEY_R: 1.1 g
  KIDNEY_TOTAL: 2.1 g
  LIVER: 11.4 g
  ALP: 820.6 IU/L
  ALT: 33.8 IU/L
  AST: 66.4 IU/L
  BUN: 18.4 mg/dL
  CRE: 0.4 mg/dL
  Ca: 10.6 mg/dL
  Cl: 103.2 meq/L
  DBIL: 0.1 mg/dL
  GLC: 199 mg/dL
  IP: 7.4 mg/dL
  K: 4.3 meq/L
  LDH: 215 IU/L
  Na: 140.2 meq/L
  PL: 147 mg/dL
  RALB: 3.3 g/dL
  TBIL: 0.2 mg/dL
  TP: 5.5 g/dL
  gamma-GTP: 1 IU/L
[5]
  TERMINAL_BW: 216.2 g
  APTT: 20.3 s
  Bas: 0%
  Eos: 1%
  Fbg: 202 mg/dL
  Hb: 13 g/dL
  Ht: 38.4%
  Lym: 80%
  MCH: 21.6 pg
  MCV: 63.7 fL
  Mono: 2.2%
  Neu: 15.8%
  PT: 12.5 s
  Plat: 116.4 x10_4/uL
  RBC: 602.6 x10_4/ul
  Ret: 7%
  WBC: 87.3 x10_2/uL
  KIDNEY_L: 1 g
  KIDNEY_R: 1 g
  KIDNEY_TOTAL: 2 g
  LIVER: 9.7 g
  ALP: 789.4 IU/L
  ALT: 34.4 IU/L
  AST: 65 IU/L
  BUN: 10.2 mg/dL
  CRE: 0.4 mg/dL
  Ca: 10.3 mg/dL
  Cl: 101.8 meq/L
  DBIL: 0.082 mg/dL
  GLC: 194.8 mg/dL
  IP: 10 mg/dL
  K: 3.8 meq/L
  LDH: 199.6 IU/L
  Na: 140.2 meq/L
  PL: 150.8 mg/dL
  RALB: 3.4 g/dL
  TBIL: 0.1 mg/dL
  TG: 63 mg/dL
  TP: 5.4 g/dL
  gamma-GTP: 1 IU/L
[6]
  TERMINAL_BW: 212.3 g
  APTT: 20 s
  Bas: 0%
  Eos: 1%
  Fbg: 205.6 mg/dL
  Hb: 13.2 g/dL
  Ht: 38.6%
  Lym: 80.6%
  MCH: 21.2 pg
  MCV: 61.9 fL
  Mono: 3%
  Neu: 14%
  PT: 12.8 s
  Plat: 123.1 x10_4/uL
  RBC: 623 x10_4/ul
  Ret: 6.2%
  WBC: 86.4 x10_2/uL
  KIDNEY_L: 1 g
  KIDNEY_R: 1 g
  KIDNEY_TOTAL: 2 g
  LIVER: 9.2 g
  ALP: 891 IU/L
  ALT: 35.4 IU/L
  AST: 68 IU/L
  BUN: 8.6 mg/dL
  CRE: 0.4 mg/dL
  Ca: 10.4 mg/dL
  Cl: 102.8 meq/L
  DBIL: 0.074 mg/dL
  GLC: 188.2 mg/dL
  IP: 9.9 mg/dL
  K: 3.7 meq/L
  LDH: 203.4 IU/L
  Na: 140.8 meq/L
  PL: 146 mg/dL
  RALB: 3.4 g/dL
  TBIL: 0.1 mg/dL
  TG: 41.8 mg/dL
  TP: 5.6 g/dL
  gamma-GTP: 0.6 IU/L
[7]
  TERMINAL_BW: 212.2 g
  APTT: 20 s
  Bas: 0%
  Eos: 1%
  Fbg: 221.6 mg/dL
  Hb: 13.2 g/dL
  Ht: 38.3%
  Lym: 80.6%
  MCH: 20.7 pg
  MCV: 60.2 fL
  Mono: 2.2%
  Neu: 15.2%
  PT: 13.3 s
  Plat: 123.1 x10_4/uL
  RBC: 637 x10_4/ul
  Ret: 5.7%
  WBC: 77.3 x10_2/uL
  KIDNEY_L: 1 g
  KIDNEY_R: 1 g
  KIDNEY_TOTAL: 1.9 g
  LIVER: 8.5 g
  ALP: 816 IU/L
  ALT: 26.6 IU/L
  AST: 60.4 IU/L
  BUN: 9.4 mg/dL
  CRE: 0.3 mg/dL
  Ca: 10.3 mg/dL
  Cl: 101 meq/L
  DBIL: 0.068 mg/dL
  GLC: 195.8 mg/dL
  IP: 9.9 mg/dL
  K: 3.6 meq/L
  LDH: 200.6 IU/L
  Na: 140.6 meq/L
  PL: 139 mg/dL
  RALB: 3.4 g/dL
  TBIL: 0.1 mg/dL
  TG: 47.2 mg/dL
  TP: 5.6 g/dL
  gamma-GTP: 0.6 IU/L
[8]
  TERMINAL_BW: 214.8 g
  APTT: 20.8 s
  Bas: 0%
  Eos: 0.8%
  Fbg: 200.6 mg/dL
  Hb: 13.7 g/dL
  Ht: 40.4%
  Lym: 86%
  MCH: 21.7 pg
  MCV: 63.9 fL
  Mono: 2%
  Neu: 10.6%
  PT: 13 s
  Plat: 127.9 x10_4/uL
  RBC: 632.8 x10_4/ul
  Ret: 6%
  WBC: 91 x10_2/uL
  KIDNEY_L: 1 g
  KIDNEY_R: 1 g
  KIDNEY_TOTAL: 2 g
  LIVER: 9.7 g
  ALP: 927.8 IU/L
  ALT: 34.6 IU/L
  AST: 65 IU/L
  BUN: 14.8 mg/dL
  CRE: 0.4 mg/dL
  Ca: 10.4 mg/dL
  Cl: 103.2 meq/L
  DBIL: 0.1 mg/dL
  GLC: 203.2 mg/dL
  IP: 7.9 mg/dL
  K: 3.6 meq/L
  LDH: 212.2 IU/L
  Na: 141 meq/L
  PL: 121.4 mg/dL
  RALB: 3.4 g/dL
  TBIL: 0.2 mg/dL
  TG: 88 mg/dL
  TP: 5.6 g/dL
  gamma-GTP: 0.8 IU/L
